According to paper PMC6225212, “Synthesis and Pharmacological Evaluation of Novel Silodosin-Based Arylsulfonamide Derivatives as α1A/α1D-Adrenergic Receptor Antagonist with Potential Uroselective Profile” (Molecules : A Journal of Synthetic Chemistry and Natural …, 2018):

Legend:
human 5-HT7Rs = target: T1, human 5-HT7Rs (Homo sapiens, UniProt P34969); assay: Radioligand binding screening [3H]-LSD, membranes from CHO-K1 cells; conditions: for inhibition at 1 µM: 10^−6 M, read-out: 5-HT7 %inh @ 10^−6 M; for inhibition at 0.1 µM: 10^−7 M, read-out: 5-HT7 %inh @ 10^−7 M
T1 construct: expressed in transfected cells; host or cells: CHO-K1
Method: (§1) Experiments were performed using membranes from CHO-K1 cells stably transfected with the human 5-HT1A and 5-HT7Rs according to the methods previously described.
Binding experiments were conducted in 96-well microplates in a total volume of 250 μL of appropriate buffers. The composition of the assay buffers was as follows: 50 mM Tris-HCl, 0.1 mM EDTA, 10 mM MgCl2. The reaction mix included 50 μL solution of test compound, 50 μL of radioligand, and 150 μL of diluted membranes. All assays were incubated for 1 h (5-HT1ARs) or 2 h (5-HT7Rs) at 37 °C. Radioactivity was counted in MicroBeta2 scintillation counter (PerkinElmer, Waltham, MA, USA). Nonspecific binding is defined with 10 µM of 5-HT and 10 µM of methiothepine in 5-HT1AR and 5-HT7R binding experiments, respectively. […]

human 5-HT1A = target: T2, human 5-HT1A (Homo sapiens, UniProt P08908); assay: Radioligand binding [3H]-8-OH-DPAT, membranes from CHO-K1 cells; conditions: ± SEM, two independent experiments
T2 construct: expressed in transfected cells; host or cells: CHO-K1
T2 sequence (P08908 1-422): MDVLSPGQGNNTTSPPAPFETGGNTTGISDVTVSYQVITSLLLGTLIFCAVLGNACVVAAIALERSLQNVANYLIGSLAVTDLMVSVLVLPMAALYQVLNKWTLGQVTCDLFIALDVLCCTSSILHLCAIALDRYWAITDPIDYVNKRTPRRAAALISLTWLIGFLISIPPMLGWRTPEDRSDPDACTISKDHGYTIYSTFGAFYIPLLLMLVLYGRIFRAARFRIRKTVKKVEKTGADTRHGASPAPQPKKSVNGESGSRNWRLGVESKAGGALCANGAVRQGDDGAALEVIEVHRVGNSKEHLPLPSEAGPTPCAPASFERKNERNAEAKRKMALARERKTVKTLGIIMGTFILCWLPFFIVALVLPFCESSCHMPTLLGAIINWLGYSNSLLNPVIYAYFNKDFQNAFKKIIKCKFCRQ
Method: as §1
Binding experiments were conducted in 96-well microplates in a total volume of 250 μL of appropriate buffers. The composition of the assay buffers was as follows: 50 mM Tris-HCl, 0.1 mM EDTA, 10 mM MgCl2. The reaction mix included 50 μL solution of test compound, 50 μL of radioligand, and 150 μL of diluted membranes. All assays were incubated for 1 h (5-HT1ARs) or 2 h (5-HT7Rs) at 37 °C. Radioactivity was counted in MicroBeta2 scintillation counter (PerkinElmer, Waltham, MA, USA). Nonspecific binding is defined with 10 µM of 5-HT and 10 µM of methiothepine in 5-HT1AR and 5-HT7R binding experiments, respectively. Each compound was tested in screening assay at two final concentrations of 10 µM and 1 µM.

α2-ARs = assay: Radioligand binding, displacement of [3H]-Clonidine from α2-ARs on rat cerebral cortex; conditions: ± SEM, two independent experiments
Method: The pharmacological profile of the new compounds was assessed in radioligand-binding assays as the ability to displace [^3H]-Prazosin or [^3H]-Clonidine from α1- and α2-ARs, respectively, on rat cerebral cortex. The inhibition constants (Ki) were calculated from the Cheng-Prusoff equation [24].
The affinity of the obtained compounds was evaluated by radioligand-binding assays (the ability to displace [^3H]-Prazosin and [^3H]-Clonidine from α1- and α2-ARs, respectively) on rat cerebral cortex. The brains are homogenized in 20 volumes of an ice-cold 50 mM Tris-HCl buffer (pH 7.6) and is centrifuged (MPW Med. Instruments, Warsaw, Poland) at 20,000 g for 20 min (0–4 °C). The cell pellet is resuspended in the Tris-HCl buffer and centrifuged again. Radioligand-binding assays are performed in plates (MultiScreen/Millipore, Burlington, MA, USA). The final incubation mixture (final volume 300 µL) consisted of 240 µL of the membrane suspension, 30 µL of [^3H]-Prazosin (0.2 nM) or [^3H]-Clonidine (2 nM) solution, and 30 µL of the buffer containing seven to eight concentrations (10^−11 to 10^−4 M) of the tested compounds. For measuring the unspecific binding, phentolamine, 10 µM (in the case of [^3H]-Prazosin) and clonidine, and 10 µM (in the case of [^3H]-Clonidine), were applied. The incubation was terminated by rapid filtration over glass fiber filters (Whatman GF/C, Sigma-Aldrich) using a vacuum manifold (Millipore). The filters were then washed twice with the assay buffer and placed in scintillation vials with a liquid-scintillation cocktail. Radioactivity was measured in a WALLAC 1409 DSA liquid-scintillation counter (BioSurplus, San Diego, CA, USA). All the assays were made in duplicate.

muscarinic M1R = target: T3, muscarinic M1R (Homo sapiens, UniProt P11229); assay: Off-target panel at Eurofins Cerep, M1; format: binding
T3 construct: Eurofins (Celle-Lévescault, France)
T3 sequence (P11229 1-460): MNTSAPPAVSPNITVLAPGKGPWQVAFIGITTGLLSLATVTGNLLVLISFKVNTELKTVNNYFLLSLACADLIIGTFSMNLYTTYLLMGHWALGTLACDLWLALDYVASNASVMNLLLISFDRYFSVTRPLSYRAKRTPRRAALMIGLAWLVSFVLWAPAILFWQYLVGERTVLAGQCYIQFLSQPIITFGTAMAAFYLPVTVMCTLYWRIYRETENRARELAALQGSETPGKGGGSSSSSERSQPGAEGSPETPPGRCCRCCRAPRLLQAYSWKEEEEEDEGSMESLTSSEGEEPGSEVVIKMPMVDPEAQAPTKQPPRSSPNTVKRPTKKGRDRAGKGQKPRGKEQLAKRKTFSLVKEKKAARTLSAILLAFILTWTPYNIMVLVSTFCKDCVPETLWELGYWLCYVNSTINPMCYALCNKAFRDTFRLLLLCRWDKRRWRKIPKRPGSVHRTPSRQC
Method: (§2) Finally, the percentage of inhibition for selected compounds 9 and 10 for off-target histaminic H1R, muscarinic M1R, adrenergic β1-AR and potassium ion channel hERG were assessed at Eurofins (Celle-Lévescault, France) according to the procedure online at www.eurofins.com.

adrenergic β1-AR = target: T4, adrenergic β1-AR (Homo sapiens, UniProt P08588); assay: Off-target panel at Eurofins Cerep, β1; format: binding
T4 construct: Eurofins (Celle-Lévescault, France)
Method: as §2

T1 sequence (P34969 whole entry): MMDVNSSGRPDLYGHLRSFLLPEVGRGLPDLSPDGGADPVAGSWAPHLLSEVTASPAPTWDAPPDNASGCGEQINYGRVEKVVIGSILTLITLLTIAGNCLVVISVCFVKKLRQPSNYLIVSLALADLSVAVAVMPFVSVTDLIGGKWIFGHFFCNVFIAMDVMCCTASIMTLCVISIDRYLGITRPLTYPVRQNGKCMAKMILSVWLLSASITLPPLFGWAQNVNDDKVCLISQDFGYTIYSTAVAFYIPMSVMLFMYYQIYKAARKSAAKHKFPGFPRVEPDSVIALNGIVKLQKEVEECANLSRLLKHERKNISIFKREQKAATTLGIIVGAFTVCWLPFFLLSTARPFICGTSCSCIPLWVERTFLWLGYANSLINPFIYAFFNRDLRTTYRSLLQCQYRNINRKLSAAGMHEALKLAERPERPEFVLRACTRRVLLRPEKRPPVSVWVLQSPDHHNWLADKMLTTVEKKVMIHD
T4 sequence (P08588 whole entry): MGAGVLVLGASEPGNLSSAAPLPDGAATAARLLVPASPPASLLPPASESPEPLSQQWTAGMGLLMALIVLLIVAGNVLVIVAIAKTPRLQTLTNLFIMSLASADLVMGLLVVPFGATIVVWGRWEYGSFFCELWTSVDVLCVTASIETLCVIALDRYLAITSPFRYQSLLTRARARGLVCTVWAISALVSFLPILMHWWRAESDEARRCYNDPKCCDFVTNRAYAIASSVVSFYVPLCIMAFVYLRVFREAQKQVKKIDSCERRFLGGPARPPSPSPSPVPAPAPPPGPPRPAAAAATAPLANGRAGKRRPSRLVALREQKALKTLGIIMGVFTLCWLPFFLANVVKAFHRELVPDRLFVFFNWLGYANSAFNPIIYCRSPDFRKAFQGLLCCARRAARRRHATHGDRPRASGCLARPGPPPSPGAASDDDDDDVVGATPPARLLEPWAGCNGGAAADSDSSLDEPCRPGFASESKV

| inhibition at 1 µM (human 5-HT7Rs) [%] | inhibition at 0.1 µM (human 5-HT7Rs) [%] | Ki (human 5-HT1A) [nM] | Ki (α2-ARs) [nM] | inhibition at 1 µM (muscarinic M1R) [%] | inhibition at 1 µM (adrenergic β1-AR) [%] | SMILES |
| --- | --- | --- | --- | --- | --- | --- |
| 93 | 57 | 70 ± 3.5 | 858 ± 69 | < 50 | < 50 | O=S(=O)(NCC1CCN(CCOc2ccccc2OCC(F)(F)F)CC1)c1cccc(Cl)c1F [Compound 9, 3-Chloro-2-fluoro-N-[(1-{2-[(2,2,2-trifluoroethoxy)phenoxy]ethyl}piperidin-4-yl)methyl]benzenesulfonamide] |
| 94 | 61 | 46 ± 0.6 | 579 ± 20 | < 50 | < 50 | O=S(=O)(NCC1CCN(CCOc2ccccc2OCC(F)(F)F)CC1)c1cc(Cl)ccc1F [Compound 10, 5-Chloro-2-fluoro-N-[(1-{2-[(2,2,2-trifluoroethoxy)phenoxy]ethyl}piperidin-4-yl)methyl]benzenesulfonamide] |
